Reference: patent EP0339444A1, “Elaiophylin derivatives, process for their preparation and use as medicaments” (HOECHST AKTIENGESELLSCHAFT, priority 1988, dated 1989)

System: Haemunchus contortus
Experiment: Anthelmintic activity in lambs artificially infected with abomasal nematodes (coproscopy up to 14 days after application, then necropsy with helminthological work-up)
Format: in vivo
Settings: Lämmer 30 bis 40 kg
Description: Die anthelminthische Wirkung der Elaiophylinderivate wurde an Lämmern mit 30 bis 40 kg Körpergewicht untersucht. Dazu wurden die Lämmer artifiziell mit Infektionsstadien von Labmagennematoden (Haemunchus contortus) infiziert. Nach Abschluß der Entwicklungszeit (Präpatenzperiode) der Nematoden erfolgte die Applikation der Elaiophylinderivate.
Durch koproskopische Untersuchungen vor und bis zu 14 Tagen nach der Applikation der Elaiophylinderivate und anschließender Sektion mit helminthologischer Aufarbeitung wurde die prozentuale Reduktion der Schaf-Nematoden ermittelt (s. Tabelle 7). Als Vergleichssubstanz diente Elaiophylin. Zusätzlich wurde auch noch die antibakterielle Aktivität der erfindungsgemäßen Elaiophylinderivate gegen Staph. aureus und Strept. pyogenes ermittelt. Überraschenderweise zeigen die erfindungsgemäßen Verbindung keine oder nur sehr geringe antibakterielle Aktivität. Gerade deshalb eignen sich die erfindungsgemäßen Verbindungen insbesondere für den Einsatz als Anthelminthika, da hier eine antibakterielle Wirkung unerwünscht ist.

Structure (SMILES) | Reduktion v. H. contortus (%) (Dosierung 5,0 mg/kg (oral)) | Reduktion v. H. contortus (%) (Dosierung 2,5 mg/kg (s.c.))
CCC1C(C)OC(O)(C(C)C(O)C(C)C2OC(=O)C3=NNCC3/C=C/C(C)C(C(C)C(O)C(C)C3(O)CC(OC4CC(O)C(O)C(C)O4)C(CC)C(C)O3)OC(=O)C3=NNCC3/C=C/C2C)CC1OC1CC(O)C(O)C(C)O1 (stereo not shown) [Verbindung 1] | 35-45% | 
CCC1C(C)OC(O)(C(C)C(O)C(C)C2OC(=O)C3=NNCC3/C=C/C(C)C(C(C)C(O)C(C)C3(O)CC(OC4CC(OC(C)=O)C(OC(C)=O)C(C)O4)C(CC)C(C)O3)OC(=O)C3=NNCC3/C=C/C2C)CC1OC1CC(OC(C)=O)C(OC(C)=O)C(C)O1 (stereo not shown) [Verbindung 2] | 40-50% | 
CCOC(=O)C1NN=C2C(=O)OC(C(C)C(O)C(C)C3(O)CC(OC4CC(O)C(O)C(C)O4)C(CC)C(C)O3)C(C)/C=C/C3C(=NNC3C(=O)OCC)C(=O)OC(C(C)C(O)C(C)C3(O)CC(OC4CC(O)C(O)C(C)O4)C(CC)C(C)O3)C(C)/C=C/C21 (stereo not shown) [Verbindung 6] | 50-60% | 50-60%
